Source: paper PMC11785640, “Structure-based inhibition of acetylcholinesterase and butyrylcholinesterase with 2-Aryl-6-carboxamide benzoxazole derivatives: synthesis, enzymatic assay, and in silico studies” (Molecular Diversity, 2024)

Key:
AChE [1] = conditions: cited from earlier work
BChE = BChE (Equus caballus, UniProt P81908); assay: biochemical; format: biochemical; conditions: for Ki: from Lineweaver-Burk graphs, mean ± SD, triplicate
Description: (§1) These analogs were dissolved in DMSO at an initial concentration of 1 mg/mL. Around 1% of DMSO was present in the final reaction mixture. Acetylthiocholine iodide (AChI)/butyrylcholine iodide (BChI) were used as substrates for enzymatic reactions. […] The mixture was incubated at 20 °C for 20 min. Then, 50 µL of 5,5’-dithio-bis 2-nitro-benzoic acid (DTNB, 0.5 mM) and AChI/BChI were added and enzymatic reactions were initiated.
(§2) Lineweaver-Burk graphs were used for the calculation of Ki and the other parameters as described in prior studies. The Ki values were taken out from this graph. All analyses were conducted independently in triplicate, and result data are expressed as mean values ± SD [59].

AChE [2] = biological target: AChE (Electrophorus electricus, UniProt O42275); assay: biochemical; format: biochemical; conditions: for Ki: from Lineweaver-Burk graphs, mean ± SD, triplicate; for Selectivity index (AChE/BChE): ratio AChE/BChE
Sequence of AChE (Electrophorus electricus, UniProt O42275) (O42275 24-633): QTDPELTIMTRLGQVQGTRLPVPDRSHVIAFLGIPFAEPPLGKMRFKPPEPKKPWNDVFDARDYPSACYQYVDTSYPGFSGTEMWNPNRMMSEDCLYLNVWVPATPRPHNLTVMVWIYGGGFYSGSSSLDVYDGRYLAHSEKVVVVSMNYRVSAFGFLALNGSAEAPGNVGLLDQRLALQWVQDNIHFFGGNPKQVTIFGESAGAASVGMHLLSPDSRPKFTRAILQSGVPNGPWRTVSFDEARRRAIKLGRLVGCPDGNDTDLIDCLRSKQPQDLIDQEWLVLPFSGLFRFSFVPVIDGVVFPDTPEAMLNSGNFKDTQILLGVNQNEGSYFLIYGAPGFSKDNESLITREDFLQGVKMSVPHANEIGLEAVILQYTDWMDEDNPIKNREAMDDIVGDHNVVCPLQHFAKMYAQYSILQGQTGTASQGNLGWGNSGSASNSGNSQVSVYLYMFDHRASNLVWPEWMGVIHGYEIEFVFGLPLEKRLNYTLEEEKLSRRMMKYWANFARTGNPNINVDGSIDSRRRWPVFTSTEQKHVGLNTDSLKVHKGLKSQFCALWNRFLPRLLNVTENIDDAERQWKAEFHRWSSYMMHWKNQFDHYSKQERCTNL
Description: as §1, §2

Sequence of BChE (P81908 whole entry): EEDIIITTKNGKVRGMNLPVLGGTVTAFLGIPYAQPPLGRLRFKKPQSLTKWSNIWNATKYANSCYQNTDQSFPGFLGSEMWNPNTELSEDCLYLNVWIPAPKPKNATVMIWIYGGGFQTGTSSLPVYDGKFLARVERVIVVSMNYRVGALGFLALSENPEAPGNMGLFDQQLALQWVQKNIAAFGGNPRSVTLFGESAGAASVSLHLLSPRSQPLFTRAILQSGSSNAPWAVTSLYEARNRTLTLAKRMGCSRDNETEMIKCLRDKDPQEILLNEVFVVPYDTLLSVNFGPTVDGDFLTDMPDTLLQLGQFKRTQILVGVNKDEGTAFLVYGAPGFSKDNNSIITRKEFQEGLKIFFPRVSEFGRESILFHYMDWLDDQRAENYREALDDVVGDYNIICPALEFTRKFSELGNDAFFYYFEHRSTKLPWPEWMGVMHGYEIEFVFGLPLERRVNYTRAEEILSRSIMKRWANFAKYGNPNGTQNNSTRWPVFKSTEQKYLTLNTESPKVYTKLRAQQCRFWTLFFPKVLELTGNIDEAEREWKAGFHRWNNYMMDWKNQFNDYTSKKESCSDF

| SMILES | concentration at which it inhibits AChE (AChE [1]) [nM] | IC50 (AChE [1]) [nM] | IC50 (BChE) [nM] | Ki (BChE) [nM] | IC50 (AChE [2]) [nM] | Ki (AChE [2]) [nM] | Selectivity index (AChE/BChE) (AChE [2]) |
| --- | --- | --- | --- | --- | --- | --- | --- |
| CN(C)C(=O)Oc1ccccc1-c1nc2ccccc2o1 [Compound 1] | 58.2 | – | – | – | – | – | – |
| Cc1ccc(CC(=O)Nc2ccc3nc(-c4ccccc4)oc3c2)cc1 [Compound 4] | – | 38.4 | – | – | – | – | – |
| CN(C)C(=O)c1ccc2nc(-c3ccc(-c4ccccc4)cc3)oc2c1 [Compound 13, 2-([1,1’-Biphenyl]-4-yl)-N,N-dimethylbenzo[d]oxazole-6-carboxamide] | – | – | 63.5 | 65.4 ± 14.1 | 33.2 | 29.8 ± 1.02 | 0.46 |
| O=C(c1ccc2nc(-c3ccc[nH]3)oc2c1)N1CCCCC1 [Compound 35, (2-(1 H-pyrrol-2-yl)benzo[d]oxazol-6-yl)(piperidin-1-yl)methanone] | – | – | 49.2 | 44.5 ± 7.43 | 19 | 12.3 ± 1.28 | 0.27 |
| O=C(c1ccc2nc(-c3cccc4ccccc34)oc2c1)N1CCOCC1 [Compound 24, Morpholino(2-(naphthalen-1-yl)benzo[d]oxazol-6-yl)methanone] | – | – | 83.8 | 50.7 ± 14 | 50.9 | 45.7 ± 1.65 | 0.90 |
| CN(C)C(=O)c1ccc2nc(-c3ccccc3)oc2c1 [Compound 7, N,N -dimethyl-2-phenylbenzo[d]oxazole-6-carboxamide] | – | – | 65.8 | 50.7 ± 6.43 | 32.9 | 23 ± 1.7 | 0.45 |
| O=C(c1ccc2nc(-c3cccs3)oc2c1)N1CCCCC1 [Compound 47, Piperidin-1-yl(2-(thiophen-2-yl)benzo[d]oxazol-6-yl)methanone] | – | – | 65.2 | 46.6 ± 2.1 | 24 | 22.3 ± 4.11 | 0.48 |
| CCCN(CCC)C(=O)c1ccc2nc(-c3cccc4ccccc34)oc2c1 [Compound 21, 2-(Naphthalen-1-yl)-N,Ndipropylbenzo[d]oxazole-6-carboxamide] | – | – | 188 | 145 ± 11.2 | 67 | 71.6 ± 12 | 0.50 |
| CCCN(CCC)C(=O)c1ccc2nc(-c3ccc[nH]3)oc2c1 [Compound 33, N,N-dipropyl-2-(1 H-pyrrol-2-yl)benzo[d]oxazole-6-carboxamide] | – | – | 55.5 | 38.5 ± 8.43 | 40.2 | 26.1 ± 3.35 | 0.68 |
| CCN(CC)C(=O)c1ccc2nc(-c3cccs3)oc2c1 [Compound 44, N,N-2-(thiophen-2-yl)benzo[d]oxazole-6-carboxamide] | – | – | 75.4 | 61 ± 11.1 | 27.6 | 15.7 ± 0.85 | 0.27 |
| CN(C)C(=O)c1ccc2nc(-c3cccc4ccccc34)oc2c1 [Compound 19, N,Ndimethyl-2-(naphthalen-1-yl)benzo[d]oxazole-6-carboxamide] | – | – | 142 | 121 ± 15.5 | 39.6 | 38.8 ± 2.96 | 0.32 |
| CCN1CCN(CC(=O)Nc2ccc3nc(-c4ccc(C(C)(C)C)cc4)oc3c2)CC1 [Compound 3] | – | 3.67 | – | – | – | – | – |
| CCN(CC)C(=O)c1ccc2nc(-c3cccc4ccccc34)oc2c1 [Compound 20, N,Ndiethyl-2-(naphthalen-1-yl)benzo[d]oxazole-6-carboxamide] | – | – | 174 | 136 ± 30.7 | 53.6 | 48.5 ± 9.97 | 0.36 |
| O=C(c1ccc2nc(-c3ccc(-c4ccccc4)cc3)oc2c1)N1CCCCC1 [Compound 17, (2-([1,1’-Biphenyl]-4-yl)benzo[d]oxazol-6-yl)(piperidin-1-yl)methanone] | – | – | 58.9 | 49.2 ± 11.1 | 20.6 | 18.4 ± 3.33 | 0.37 |
| CCCN(CCC)C(=O)c1ccc2nc(-c3ccncc3)oc2c1 [Compound 27, N,Ndipropyl-2-(pyridin-4-yl)benzo[d]oxazole-6-carboxamide] | – | – | 87.1 | 69.7 ± 4.1 | 49.5 | 50 ± 5.13 | 0.72 |
| CCN(CC)Cn1c(=S)oc2ccccc21 [Compound 6, 3-(diethylamino) methyl-2-thione benzoxazole] | – | 38 | – | – | – | – | – |
| O=C(c1ccc2nc(-c3ccccc3)oc2c1)N1CCOCC1 [Compound 12] | – | – | 34.5 | 32.3 ± 3.25 | 29.6 | 28.6 ± 3.96 | 0.88 |
| CN(C)C(=O)c1ccc2nc(-c3cccs3)oc2c1 [Compound 43, N,Ndimethyl-2-(thiophen-2-yl)benzo[d]oxazole-6-carboxamide] | – | – | 130 | 120 ± 25.7 | 29.2 | 19.9 ± 0.73 | 0.17 |
| O=C(c1ccc2nc(-c3ccco3)oc2c1)N1CCCCC1 [Compound 41] | – | – | 80.1 | 75.5 ± 18.4 | 25.3 | 30.7 ± 6.03 | 0.41 |
| S=c1oc2ccccc2n1CN1CCOCC1 [Compound 5, 3-morpholino methyl-2-thione benzoxazole] | – | 44 | – | – | – | – | – |
| CN(C)C(=O)c1ccc2nc(-c3ccncc3)oc2c1 [Compound 25, N,Ndimethyl-2-(pyridin-4-yl)benzo[d]oxazole-6-carboxamide] | – | – | 93.6 | 66.4 ± 13.6 | 54.7 | 85.3 ± 11.2 | 1.28 |
